This assay concerns MV4:11 human cancer cell lines. The assay can be described thus: Cellular viability / anti-proliferative activity, CellTiter-Glo, 5 day protocol. Format: cell-based. The settings on record: Homo sapiens, MV4-11, 120 h, MV4:11 cells; 5 day incubation; CellTiter-Glo; mean of minimum two replicates; read-out: GI50 on cellular proliferation of MV4:11 human cancer cell lines. The method in brief: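 Compounds were tested over 22 two-fold dilutions starting at 30 μM in 0.3% DMSO, with 200 cells per well (7200 cells/mL). Viability was measured by CellTiter-Glo luminescence at day 5.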
On the technique in general: ATP-based viability assays read luminescence as a measure of living cells.
For the molecule `Cc1nccn1Cc1cc2c(c(-c3cn(C)nc3C(F)(F)F)c1)CCN(CC1CCCCO1)C2=O` (centres unmarked) [Example 169, 7-((2-Methyl-1H-imidazol-1-yl)methyl)-5-(1-methyl-3-(trifluoromethyl)-1H-pyrazol-4-yl)-2-((tetrahydro-2H-pyran-2-yl)methyl)-3,4-dihydroisoquinolin-1(2H)-one], the GI50 is 2000 nM.

As for `COc1ccnc(CN2CCc3c(cc(CN4CCN(C)C4=N)cc3-c3cn(C)nc3C)C2=O)c1` [Example 47, 5-(1,3-Dimethyl-1H-pyrazol-4-yl)-7-((2-imino-3-methylimidazolidin-1-yl)methyl)-2-((4-methoxypyridin-2-yl)methyl)-3,4-dihydroisoquinolin-1(2H)-one], the GI50 was found to be 165 nM.

Regarding `Cc1cc([C@H](C)N2CCc3c(cc(Cn4ccnc4C)cc3-c3cn(C)nc3C)C2=O)ccc1F` [Example 146, (S)-5-(1,3-Dimethyl-1H-pyrazol-4-yl)-2-(1-(4-fluoro-3-methylphenyl)ethyl)-7-((2-methyl-1H-imidazol-1-yl)methyl)-3,4-dihydroisoquinolin-1(2H)-one], the GI50 was below 50 nM.

Take `COc1ccnc(CN2CCc3c(cc(CNC4=NCCO4)cc3-c3cn(C)nc3C)C2=O)c1` [Example 134, 7-(((4,5-Dihydrooxazol-2-yl)amino)methyl)-5-(1,3-dimethyl-1H-pyrazol-4-yl)-2-((4-methoxypyridin-2-yl)methyl)-3,4-dihydroisoquinolin-1(2H)-one]: the GI50 was above 938 nM.

Take `CCn1cc(CN2CCc3c(cc(Cn4ccnc4C)cc3-c3cn(CC)nc3C(F)(F)F)C2=O)nn1` [Example 15, 2-((1-Ethyl-1H-1,2,3-triazol-4-yl)methyl)-5-(1-ethyl-3-(trifluoromethyl)-1H-pyrazol-4-yl)-7-((2-methyl-1H-imidazol-1-yl)methyl)-3,4-dihydroisoquinolin-1(2H)-one]: the GI50 stood at 76 nM.

Regarding `CCn1cc(-c2cc(Cn3ccnc3C#N)cc3c2CCN([C@@H](C)c2cc(OC)ccn2)C3=O)c(C(F)(F)F)n1` [Example 179], the GI50 came to 9640 nM.

For `Cc1nnc(CN2CCc3c(cc(Cn4ccnc4C)cc3-c3cn(C)nc3C(F)(F)F)C2=O)s1` [Example 174, 2-((5-Methyl-1,3,4-thiadiazol-2-yl)methyl)-7-((2-methyl-1H-imidazol-1-yl)methyl)-5-(1-methyl-3-(trifluoromethyl)-1H-pyrazol-4-yl)-3,4-dihydroisoquinolin-1(2H)-one], the GI50 amounted to 329 nM.

Regarding `Cc1cc([C@H](C)N2CCc3c(cc(Cn4ccnc4C)cc3-c3cn(C)nc3C(F)(F)F)C2=O)ccc1F` [Example 24, (S)-2-(1-(4-Fluoro-3-methylphenyl)ethyl)-7-((2-methyl-1H-imidazol-1-yl)methyl)-5-(1-methyl-3-(trifluoromethyl)-1H-pyrazol-4-yl)-3,4-dihydroisoquinolin-1(2H)-one], the GI50 is below 50 nM.

Take `COc1ccnc(CN2CCc3c(cc(Cn4nc5ccccn5c4=N)cc3-c3cn(C)nc3C(F)(F)F)C2=O)c1` [Example 125, 7-((3-Imino-[1,2,4]triazolo[4,3-a]pyridin-2(3H)-yl)methyl)-2-((4-methoxypyridin-2-yl)methyl)-5-(1-methyl-3-(trifluoromethyl)-1H-pyrazol-4-yl)-3,4-dihydroisoquinolin-1(2H)-one]: the GI50 was above 938 nM.

Turning to `COc1cc(CN2CCc3c(cc(Cn4ccn(C)c4=N)cc3-c3cn(C)nc3C)C2=O)cc(OC)c1` [Example 70, 2-(3,5-Dimethoxybenzyl)-5-(1,3-dimethyl-1H-pyrazol-4-yl)-7-((2-imino-3-methyl-2,3-dihydro-1H-imidazol-1-yl)methyl)-3,4-dihydroisoquinolin-1(2H)-one], the GI50 was 77 nM.

With `Cc1cncc(CN2CCc3c(cc(Cn4ccnc4C)cc3-c3cn(C)nc3C(F)(F)F)C2=O)c1` [Example 157, 7-((2-Methyl-1H-imidazol-1-yl)methyl)-5-(1-methyl-3-(trifluoromethyl)-1H-pyrazol-4-yl)-2-((5-methylpyridin-3-yl)methyl)-3,4-dihydroisoquinolin-1(2H)-one], the GI50 is below 50 nM.

For the molecule `COc1cc(CN2CCc3c(cc(Cn4ccn(C)c4=N)cc3-c3nc(C)cn3C)C2=O)cc(OC)c1` [Example 153, 2-(3,5-Dimethoxybenzyl)-5-(1,4-dimethyl-1H-imidazol-2-yl)-7-((2-imino-3-methyl-2,3-dihydro-1H-imidazol-1-yl)methyl)-3,4-dihydroisoquinolin-1(2H)-one], the GI50 is above 938 nM.

Take `Cc1cc(CN2CCc3c(cc(Cn4ccn(C)c4=N)cc3-c3cccnc3C)C2=O)ccc1Cl` [Example 27, 2-(4-Chloro-3-methylbenzyl)-7-((2-imino-3-methyl-2,3-dihydro-1H-imidazol-1-yl)methyl)-5-(2-methylpyridin-3-yl)-3,4-dihydroisoquinolin-1(2H)-one]: the GI50 is above 938 nM.

For `Cc1cc([C@H](C2CC2)N2CCc3c(cc(Cn4ccn(C)c4=N)cc3-c3cccnc3C(F)(F)F)C2=O)ccc1F` [Example 34, (S)-2-(Cyclopropyl(4-fluoro-3-methylphenyl)methyl)-7-((2-imino-3-methyl-2,3-dihydro-1H-imidazol-1-yl)methyl)-5-(2-(trifluoromethyl)pyridin-3-yl)-3,4-dihydroisoquinolin-1(2H)-one], the GI50 stood at 215 nM.

Turning to `Cc1ccnc(CN2CCc3c(cc(Cn4ccn(C5CC5)c4=N)cc3-c3cn(C)nc3C(F)(F)F)C2=O)c1` [Example 51, 7-((3-Cyclopropyl-2-imino-2,3-dihydro-1H-imidazol-1-yl)methyl)-5-(1-methyl-3-(trifluoromethyl)-1H-pyrazol-4-yl)-2-((4-methylpyridin-2-yl)methyl)-3,4-dihydroisoquinolin-1(2H)-one], the GI50 was below 50 nM.

On to `COc1cc(CN2CCc3c(cc(Cn4ccoc4=N)cc3-c3cccnc3C(F)(F)F)C2=O)cc(OC)c1` [Example 80, 2-(3,5-Dimethoxybenzyl)-7-((2-iminooxazol-3(2H)-yl)methyl)-5-(2-(trifluoromethyl)pyridin-3-yl)-3,4-dihydroisoquinolin-1(2H)-one], for which the GI50 is below 50 nM.

`COc1cc(CN2CCc3c(cc(CN4CCOC4=N)cc3-c3cccnc3C(F)(F)F)C2=O)cc(OC)c1` [Example 82, 2-(3,5-Dimethoxybenzyl)-7-((2-iminooxazolidin-3-yl)methyl)-5-(2-(trifluoromethyl)pyridin-3-yl)-3,4-dihydroisoquinolin-1(2H)-one]: the GI50 was 55 nM.

Turning to `Cc1cc(CN2CCc3c(cc(Cn4ccnc4C)cc3-c3cn(C)nc3C(F)(F)F)C2=O)on1` [Example 190, 7-((2-Methyl-1H-imidazol-1-yl)methyl)-5-(1-methyl-3-(trifluoromethyl)-1H-pyrazol-4-yl)-2-((3-methylisoxazol-5-yl)methyl)-3,4-dihydroisoquinolin-1(2H)-one], the GI50 worked out at 349 nM.

Regarding `Cc1nnc(CN2CCc3c(cc(Cn4ccnc4C)cc3-c3cn(C)nc3C(F)(F)F)C2=O)o1` [Example 188, 2-((5-Methyl-1,3,4-oxadiazol-2-yl)methyl)-7-((2-methyl-1H-imidazol-1-yl)methyl)-5-(1-methyl-3-(trifluoromethyl)-1H-pyrazol-4-yl)-3,4-dihydroisoquinolin-1(2H)-one], the GI50 amounted to 730 nM.

`COc1ccnc(CN2CCc3c(cc(Cn4ccnc4C)cc3-c3cc(F)cnc3C)C2=O)c1` [Example 229, 5-(5-Fluoro-2-methylpyridin-3-yl)-2-((4-methoxypyridin-2-yl)methyl)-7-((2-methyl-1H-imidazol-1-yl)methyl)-3,4-dihydroisoquinolin-1(2H)-one]: the GI50 amounted to 1050 nM.

As for `COc1ccnc(CN2CCc3c(cc(Cn4ccn(C)c4=N)cc3-c3cn(C)nc3C(F)(F)F)C2=O)c1` [Example 41, 7-((2-Imino-3-methyl-2,3-dihydro-1H-imidazol-1-yl)methyl)-2-((4-methoxypyridin-2-yl)methyl)-5-(1-methyl-3-(trifluoromethyl)-1H-pyrazol-4-yl)-3,4-dihydroisoquinolin-1(2H)-one], the GI50 came to 64 nM.

For the molecule `Cc1nccn1Cc1cc2c(c(-c3cn(C)nc3C(F)(F)F)c1)CCN(Cc1cccc(C(F)(F)F)c1)C2=O` [Example 221, 7-((2-Methyl-1H-imidazol-1-yl)methyl)-5-(1-methyl-3-(trifluoromethyl)-1H-pyrazol-4-yl)-2-(3-(trifluoromethyl)benzyl)-3,4-dihydroisoquinolin-1(2H)-one], the GI50 worked out at 421 nM.

With `COc1cc(CN2CCc3c(OCC4CC4)cc(Cn4ccnc4C4CC4)cc3C2=O)cc(OC)c1` [Example 19, 7-((2-Cyclopropyl-1H-imidazol-1-yl)methyl)-5-(cyclopropylmethoxy)-2-(3,5-dimethoxybenzyl)-3,4-dihydroisoquinolin-1(2H)-one], the GI50 is above 938 nM.

As for `Cc1nccn1Cc1cc2c(c(-c3cn(C)nc3C(F)(F)F)c1)CCN(Cc1ccc3ccccc3n1)C2=O` [Example 176, 7-((2-Methyl-1H-imidazol-1-yl)methyl)-5-(1-methyl-3-(trifluoromethyl)-1H-pyrazol-4-yl)-2-(quinolin-2-ylmethyl)-3,4-dihydroisoquinolin-1(2H)-one], the GI50 stood at 293 nM.

For `COc1cc(CN2CCc3c(cc(Cn4cc(C)nc4C)cc3-c3cn(C)nc3C(F)(F)F)C2=O)cc(OC)c1` [Example 17, 2-(3,5-Dimethoxybenzyl)-7-((2,4-dimethyl-1H-imidazol-1-yl)methyl)-5-(1-methyl-3-(trifluoromethyl)-1H-pyrazol-4-yl)-3,4-dihydroisoquinolin-1(2H)-one], the GI50 was 360 nM.

For the molecule `CCn1cc(-c2cc(Cn3ccn(C)c3=N)cc3c2CCN(Cc2cc(OC)ccn2)C3=O)c(C(F)(F)F)n1` [Example 57, 5-(1-Ethyl-3-(trifluoromethyl)-1H-pyrazol-4-yl)-7-((2-imino-3-methyl-2,3-dihydro-1H-imidazol-1-yl)methyl)-2-((4-methoxypyridin-2-yl)methyl)-3,4-dihydroisoquinolin-1(2H)-one], the GI50 came to 50 nM.

The record behind these values is patent US11999716B2, “WDR5 inhibitors and modulators” (priority 2018, dated 2024).
